Structures can show the parent of a compound that is named as a salt.
System: MTT (mouse pheochromocytoma)
Test: IC50 of cell viability (ATP content)
Conditions: (24 or 48 h)
In short: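 Library compounds in DMSO (23 nl by pintool, 8 concentrations, final 0.5 nM to 46 µM) were applied for 24 or 48 hrs to MTT mouse pheochromocytoma cells that had been cultured overnight at 37°C, 5% CO2 in white 1536-well plates. Cell viability was measured by CellTiter-Glo ATP luminescence, read after 15 minutes, with positive-control wells set at 100% and DMSO wells at 0%. A four-parameter logistic fit of the normalised signals yielded the IC50.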

SMILES | IC50 of cell viability [µM]
COc1cc(C)c(/C=C/C(C)=C/C=C/C(C)=C/C(=O)O)c(C)c1C [ACITRETIN] | > 46
CCOC(=O)C1(c2ccccc2)CCCN(C)CC1 (stereo not given) [Ethoheptazine hydrochloride] | > 46
CCCCCOc1ccc(C2SC(=O)NC2=O)cc1OCC (stereo not given) [Risarestat] | > 46
CC1(COc2ccc(CC3SC(=O)NC3=O)cc2)CCCCC1 (stereo not given) [Ciglitizone] | > 46
CC1(C)SC2C(N3C(=O)C(c4ccccc4)NC3(C)C)C(=O)N2C1C(=O)[O-].[K+] (stereo not given) [HETACILLIN POTASSIUM] | > 46
CC(N)C(=O)c1ccccc1 [(R)-(+)-Cathinone] | > 46
CN1C2CCC1CC(OC(c1ccccc1)c1ccccc1)C2.O=[S+]([O-])(O)O (stereo not given) [BENZTROPINE] | > 46
O=C(O)CCCCC(=O)O [Adipic acid] | > 46
CC(=O)OCC[N+](C)(C)C [Acetylcholine chloride] | > 46
O=C1CC2(CCCC2)CC(=O)N1CCCCN1CCN(c2ncccn2)CC1 [BUSPIRONE] | > 46
CC(C)[C@H](N)C(=O)OCC(CO)OC[N]1C=NC2=C1\N=C(\N)NC2=O (stereo not given in full) [VALGANCICLOVIR HYDROCHLORIDE] | > 46
C#C[C@]1(O)CC[C@H]2[C@@H]3CCC4=C/C(=N\O)CC[C@H]4[C@@H]3CC[C@]21CC [NORELGESTROMIN] | > 46
CCCCc1oc2ccccc2c1C(=O)c1cc(I)c(OCCN(CC)CC)c(I)c1 [AMIODARONE] | > 46
C[C@@H]1CC2[C@@H]3C[C@H](F)C4=CC(=O)C(Cl)=C[C@]4(C)[C@@]3(F)[C@H](O)C[C@]2(C)[C@@]1(O)C(=O)CO (stereo not given in full) [Halometasona] | > 46
COc1ccc(CCNC[C@@H](O)c2ccc(O)cc2)cc1OC [R(-)-Denopamine] | > 46
C=C1C(n2cnc3c(O)nc(N)nc32)C[C@H](O)[C@H]1CO (stereo not given in full) [ENTECAVIR] | > 46
Oc1ccc2c3c1O[C@H]1[C@@H](O)CC[C@@]4(O)C(C2)N(CC2CCC2)CCC314 (stereo not given in full) [NALBUPHINE] | > 46
CC(NNC(=O)c1ccccc1)c1ccccc1 (stereo not given) [Benmoxin] | > 46
CCOC1=C2O[C@H]3[C@@H](O)\C=C/[C@H]4[C@H]5CC(=C2[C@@]34CCN5C)C=C1 [ETHYLMORPHINE HYDROCHLORIDE] | > 46
CC(C)[N+](C)(CCOC(=O)C1c2ccccc2Oc2ccccc21)C(C)C.[Br-] [PROPANTHELINE BROMIDE] | > 46
OCc1ccccc1 [Benzyl alcohol] | > 46
Clc1cccc(SC2CCNCC2)n1 [ANPIRTOLINE] | > 46

SMILES | IC50 of cell viability [µM]
CC(C)OC(=O)C(C)(C)Oc1ccc(C(=O)c2ccc(Cl)cc2)cc1 [Fenofibrate] | > 46
CC(C)Nc1cccnc1N1CCN(C(=O)c2cc3cc(N[S+](C)(=O)[O-])ccc3[nH]2)CC1 [DELAVIRDINE MESYLATE] | > 46
O=C(O[C@H]1C[C@H]2CC[C@@H](C1)[N+]21CCCC1)C(O)(c1ccccc1)c1ccccc1 [TROSPIUM CHLORIDE] | > 46
CC(N)CCCC(C)(C)O.Cl (stereo not given) [HEPTAMINOL HYDROCHLORIDE] | > 46
[Na+].CC1=C(C(=O)N[C@H]2[C@H]3SC(C)(C)[C@H]([N@]3C2=O)C([O-])=O)C(=NO1)C4=C(Cl)C=CC=C4 [Cloxacillin sodium salt] | > 46
OCC(O)CO [GLYCERIN] | > 46
CN(C)CCc1c[nH]c2ccccc12 [N,N-Dimethyltryptamine] | > 46
CN(C/C=C\c1ccccc1)Cc1cccc2ccccc12 [Naftifine hydrochloride] | > 46
CCCC(C(=O)OCCN(CC)CC)(c1ccccc1)c1ccccc1.Cl [PROADIFEN HYDROCHLORIDE] | > 46
O=C(O)CCCOc1ccc(Cl)cc1Cl [4-(2,4-Dichlorophenoxy)butyric acid] | > 46
CN1CCC[C@H](CC2c3ccccc3Sc3ccccc32)C1 [Metixene hydrochloride] | > 46
CCOC(=O)[C@H](CCc1ccccc1)N[C@@H](C)C(=O)N1CCC[C@H]1C(=O)O [Enalaprila] | > 46
COc1ccc2c(c1)c(CC(=O)O)c(C)n2C(=O)c1ccc(Cl)cc1 [Indometacin] | > 46
C[C@H]1CNCCc2ccc(Cl)cc21 [Lorcaserin] | > 46
Nc1nc(N)c2nc(CNc3ccc(C(=O)NC(CCC(=O)O)C(=O)O)cc3)cnc2n1 (stereo not given) [AMINOPTERIN] | > 46
COC(=O)C(Cc1ccccc1)NC(=O)C(N)CC(=O)O (stereo not given) [ASPARTAME] | > 46
CCCCCCCCCCCCCCCCCC(=O)OCC(C)O (stereo not given) [PROPYLENE GLYCOL STEARATE SE] | > 46
CC(=O)Nc1ccc(OC(=O)c2ccccc2O)cc1 [ACETAMINOSALOL] | > 46
CCCCCCCCCCCCCCCCCCOCC(O)CO (stereo not given) [BATYL ALCOHOL] | > 46
COc1ccc2c3c1OC1[C@H](O)CCC4[C@@H](C2)N(C)CC[C@]314 (stereo not given in full) [Dihydroisocodeine] | > 46
CN1C(C(=O)Nc2ccccn2)C(=O)c2sc(Cl)cc2[S+]1(=O)[O-] (stereo not given) [Lornoxicam] | > 46
CN1C[C@H](C(=O)N[C@]2(C)O[C@@]3(O)[C@@H]4CCCN4C(=O)[C@H](Cc4ccccc4)N3C2=O)C[C@@H]2c3cccc4[nH]cc(c34)C[C@H]21 [DIHYDROERGOTAMINE] | > 46

SMILES | IC50 of cell viability [µM]
O=C1NCCN1CCN1CCC(c2cn(-c3ccc(F)cc3)c3ccc(Cl)cc23)CC1 [Sertindole] | > 46
CCC1([C@@H]2O[C@@H]([C@@H]3O[C@](O)(CO)[C@@H](C)C[C@H]3C)C[C@H]2C)CC[C@H]([C@]2(C)CC[C@]3(C[C@@H](O)[C@@H](C)[C@H]([C@H](C)[C@H](OC)[C@H](C)C(=O)[O-])O3)O2)O1.[Na+] (stereo not given in full) [Monensin sodium salt] | > 46
Cc1cc(OI)c(C(C)C)cc1-c1cc(C(C)C)c(OI)cc1C [THYMOL IODIDE] | > 46
O.O.O.[Na+].[Na+].O[Hg]C1=C2OC/3=C/C(=O)/C(=C\C3=C(\C2=CC(=C1[O-])Br)C4=C(C=CC=C4)C([O-])=O)Br [Merbromin] | > 46
CN(C)C(=O)Oc1cc(OC(=O)N(C)C)cc([C@@H](O)CNC(C)(C)C)c1 [Bambuterol hydrochloride] | > 46
O=C(OCc1ccccc1)c1ccc(O)cc1 [benzyl 4-hydroxybenzoate] | > 46
CCN(CC)C(C)C(=O)c1ccccc1 (stereo not given) [DIETHYLPROPION HYDROCHLORIDE] | > 46
[O-][S+](c1cc(Cl)cc(Cl)c1O)c1cc(Cl)cc(Cl)c1O [Bithionoloxide] | > 46
CC1(C)S[C@H]2[C@H](NC(=O)[C@@H](N)C3=CC=CC=C3)C(=O)[N@]2[C@H]1C(=O)O[C@@H]4OC(=O)C5=C4C=CC=C5 [Talampicillin hydrochloride] | > 46
CC(=O)NC1[C@H](O)C[C@@](O)(C(=O)O)O[C@H]1[C@H](O)[C@H](O)CO (stereo not given in full) [ACIDUM ACENEURAMICUM] | > 46
O=C1CC[C@@H](C(=O)O)N1 [PYRROLIDONE CARBOXYLIC ACID] | > 46
CC(C)(S)[C@@H](N)C(=O)O [PENICILLAMINE] | > 46
CCCCCCCCCCOCC(O)CN (stereo not given) [Decominol] | > 46
O=C1OC2(c3ccc(O)cc3Oc3cc(O)ccc32)c2ccccc21 [Fluorescein (free acid)] | > 46
N[C@@H](Cc1ccc(O)cc1)C(=O)O [TYROSINE] | > 46
C=CC1=C(C(=O)O)N2C(=O)[C@@H](NC(=O)/C(=N\OCC(=O)O)c3csc(N)n3)[C@@H]2SC1 [Cefixime] | > 46
CSCCC(NC(=O)[C@H](Cc1c[nH]c2ccccc12)NC(=O)CNC(=O)[C@H](CCSC)NC(=O)[C@H](Cc1ccc(O[S+](=O)([O-])O)cc1)NC(=O)[C@@H](N)CC(=O)O)C(=O)N[C@@H](CC(=O)O)C(=O)N[C@@H](Cc1ccccc1)C(N)=O (stereo not given in full) [(Tyr[SO3H]27)Cholecystokinin fragment 26-33 Amide] | > 46
O=P(O)(O)OC(Cn1cncn1)(Cn1cncn1)c1ccc(F)cc1F [Fosfluconazole] | > 46
COc1cccc(OC)c1C(=O)NC1C(=O)N2C1SC(C)(C)C2C(=O)[O-].[Na+] (stereo not given) [METHICILLIN SODIUM] | > 46
C[N+](C)(C)CCCCCC[N+](C)(C)C [HEXAMETHONIUM] | > 46
CCC(C(N)=O)N1CCCC1=O (stereo not given) [Etiracetam] | > 46
